Source: patent US8247211B2, “Glycopeptide antibiotics” (American Cyanamid Company, priority 2001, dated 2012)
Converted amounts (≈) assume the structure as drawn.

What was measured:
[1] = system: Staphylococcus aureus-SMITH (GC 4543); assay: Acute lethal infection in mice (ED50); assay type: in vivo; conditions: female CD-1 mice, intraperitoneal challenge, intravenous dose 30 min. after infection, 7 day survival ratios
Procedure, shortened: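 ED50 derived from pooled 7-day survival in three separate experiments, five mice per dose level. Single intravenous dose 30 min after intraperitoneal infection of female CD-1 mice with enough bacteria to kill untreated animals in 24-48 h.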

Staphylococcus sp. = assay: In vitro antibacterial evaluation: minimum inhibitory concentration (MIC), broth dilution method; assay type: cell-based; conditions: 18 hours at 35° C.
Procedure, shortened: (§1)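 Susceptibility determined by NCCLS-recommended broth dilution (M7-A2), Muller-Hinton II […]. Concentration span 64-0.06 μg/mL, inoculum 5×10^5 CFU/mL. Isolates include strains resistant to methicillin, penicillin and/or vancomycin.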

Streptococcus sp. = assay: as above; assay type: cell-based; conditions: 18 hours at 35° C.
Procedure, shortened: as §1

Escherichia coli = assay: as above; assay type: cell-based; conditions: 18 hours at 35° C.
Procedure, shortened: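 Broth dilution per NCCLS M7-A2 in Muller-Hinton II […], inoculum 5×10^5 CFU/mL, antibiotic tested over 64-0.06 μg/mL. MIC is taken as the lowest concentration that inhibits growth. Panel includes recent clinical isolates resistant to methicillin, penicillin and/or vancomycin.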

Enterococcus sp. = assay: as above; assay type: cell-based; conditions: 18 hours at 35° C.
Procedure, shortened: as §1

[2] = assay type: in vivo; conditions: mice, 20 mg/kg intravenously daily for 9 days, serum on day 10
Protocol: 20-day-old CD-1 mice were divided into a vehicle control group (5 mice) and a treatment group (5 mice). Samples of glycopeptide antibiotics were administered at 20 mg/kg intravenously daily for 9 days. Animals were necropsied on day 10 Sera were analyzed for BUN (blood urea nitrogen), creatinine, AST (aspartic aminotransferase), and ALT (alanine aminotransferase) by routine, standard, automated methods using an Hitachi 747 chemistry analyzer.

[3] = Anatomic pathology (heart and kidney histopathology) in mice; assay type: in vivo, CD-1 mice; conditions: 20 mg/kg intravenously daily for 9 days, microscopic histopathology on day 10
Procedure, shortened: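 Histopathology on H&E-stained, paraffin-embedded sections, subjectively scored (slight, mild, moderate, marked, severe) relative to untreated controls. Dosing: glycopeptide antibiotics 20 mg/kg intravenously once daily ×9 days in 20-day-old CD-1 mice, n=5 per group including vehicle.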

[4] = broth dilution, inoculum 5×10^5 CFU/mL

COc1ccc2cc(COCC3OC(OC4C(CO)OC(Oc5ccc(CC6NC(=O)C(C(C)c7ccccc7)NC(=O)CNC(=O)C(CO)NC(=O)C(CC7CNC(=N)N7C7OC(CO)C(O)C(O)C7O)NC(=O)C(CC7CNC(=N)N7)NC6=O)cc5)C(O)C4O)C(O)C(O)C3O)ccc2c1 (stereo not drawn) [Example 245, Cyclo[3-(2-iminoimidazolidin-4-yl)alanyl-3-(3-hexopyranosyl-2-iminoimidazolidin-4-yl)-alanylserylglycyl-β-methylphenylalanyl-O-[4-O-[6-O-[(6-methoxy-2-naphthyl)methyl]-hexopyranosyl)hexopyranosyl]tyrosyl]]
median effective dose (ED50), Staphylococcus aureus-SMITH (GC 4543) [1]: 4 mg/kg | MIC Coagulase Negative Staphylococcus (GC 4547) (Staphylococcus sp.; Coagulase Negative Staphylococcus (GC 4547)): 4 µg/mL (≈ 2.79 µM) | MIC Coagulase Negative Staphylococcus (GC 4548) (Staphylococcus sp.; Coagulase Negative Staphylococcus (GC 4548)): 2 µg/mL (≈ 1.4 µM) | MIC Coagulase Negative Staphylococcus (GC 4549) (Staphylococcus sp.; Coagulase Negative Staphylococcus (GC 4549)): 1 µg/mL (≈ 0.698 µM) | MIC Coagulase Negative Staphylococcus (GC 4551) (Staphylococcus sp.; Coagulase Negative Staphylococcus (GC 4551)): 8 µg/mL (≈ 5.58 µM) | MIC Coagulase Negative Staphylococcus (GC 6257) (Staphylococcus sp.; Coagulase Negative Staphylococcus (GC 6257)): 2 µg/mL (≈ 1.4 µM) | MIC Staphylococcus aureus (ATCC 29213) (Staphylococcus sp.; Staphylococcus aureus (ATCC 29213)): 4 µg/mL (≈ 2.79 µM) | MIC Staphylococcus aureus (GC 1131) (Staphylococcus sp.; Staphylococcus aureus (GC 1131)): 8 µg/mL (≈ 5.58 µM) | MIC Staphylococcus aureus (GC 3051) (Staphylococcus sp.; Staphylococcus aureus (GC 3051)): 4 µg/mL (≈ 2.79 µM) | MIC Staphylococcus aureus (GC 3053) (Staphylococcus sp.; Staphylococcus aureus (GC 3053)): 4 µg/mL (≈ 2.79 µM) | MIC Staphylococcus aureus (GC 4541) (Staphylococcus sp.; Staphylococcus aureus (GC 4541)): 4 µg/mL (≈ 2.79 µM) | MIC Staphylococcus aureus (GC 4542) (Staphylococcus sp.; Staphylococcus aureus (GC 4542)): 4 µg/mL (≈ 2.79 µM) | MIC Staphylococcus aureus (GC 4544) (Staphylococcus sp.; Staphylococcus aureus (GC 4544)): 8 µg/mL (≈ 5.58 µM) | MIC Staphylococcus aureus (GC 4545) (Staphylococcus sp.; Staphylococcus aureus (GC 4545)): 4 µg/mL (≈ 2.79 µM) | MIC Staphylococcus aureus-SMITH (GC 4543) (Staphylococcus sp.; Staphylococcus aureus-SMITH (GC 4543)): 4 µg/mL (≈ 2.79 µM) | MIC Staphylococcus haemolyticus (GC 4546) (Staphylococcus sp.; Staphylococcus haemolyticus (GC 4546)): 4 µg/mL (≈ 2.79 µM) | MIC Streptococcus agalactiae (GC 4564) (Streptococcus sp.; Streptococcus agalactiae (GC 4564)): 4 µg/mL (≈ 2.79 µM) | MIC Streptococcus pneumoniae (ATCC 6301) (Streptococcus sp.; Streptococcus pneumoniae (ATCC 6301)): 2 µg/mL (≈ 1.4 µM) | MIC Streptococcus pneumoniae (GC 1894) (Streptococcus sp.; Streptococcus pneumoniae (GC 1894)): 1 µg/mL (≈ 0.698 µM) | MIC Streptococcus pneumoniae (GC 4565) (Streptococcus sp.; Streptococcus pneumoniae (GC 4565)): 4 µg/mL (≈ 2.79 µM) | MIC Streptococcus pyogenes (GC 4563) (Streptococcus sp.; Streptococcus pyogenes (GC 4563)): 4 µg/mL (≈ 2.79 µM) | MIC Streptococcus agalactiae (GC 4564) (Streptococcus sp.; [4]): 4 µg/mL (≈ 2.79 µM) | MIC Streptococcus pneumoniae (ATCC 6301) (Streptococcus sp.; [4]): 2 µg/mL (≈ 1.4 µM) | MIC Streptococcus pneumoniae (GC 1894) (Streptococcus sp.; [4]): 1 µg/mL (≈ 0.698 µM) | MIC Streptococcus pneumoniae (GC 4565) (Streptococcus sp.; [4]): 4 µg/mL (≈ 2.79 µM) | MIC Streptococcus pyogenes (GC 4563) (Streptococcus sp.; [4]): 4 µg/mL (≈ 2.79 µM) | MIC Escherichia coli (ATCC 25922) (Escherichia coli; Escherichia coli (ATCC 25922)): 64 µg/mL (≈ 44.6 µM) | MIC Escherichia coli (GC 4559) (Escherichia coli; Escherichia coli (GC 4559)): 32 µg/mL (≈ 22.3 µM) | MIC Escherichia coli (GC 4560) (Escherichia coli; Escherichia coli (GC 4560)): 4 µg/mL (≈ 2.79 µM) | MIC Enterococcus avium (GC 4558) (Enterococcus sp.; Enterococcus avium (GC 4558)): 16 µg/mL (≈ 11.2 µM) | MIC Enterococcus faecalis (ATCC 29212) (Enterococcus sp.; Enterococcus faecalis (ATCC 29212)): 32 µg/mL (≈ 22.3 µM) | MIC Enterococcus faecalis (GC 2242) (Enterococcus sp.; Enterococcus faecalis (GC 2242)): 16 µg/mL (≈ 11.2 µM) | MIC Enterococcus faecalis (GC 2691) (Enterococcus sp.; Enterococcus faecalis (GC 2691)): 32 µg/mL (≈ 22.3 µM) | MIC Enterococcus faecalis (GC 3059) (Enterococcus sp.; Enterococcus faecalis (GC 3059)): 16 µg/mL (≈ 11.2 µM) | MIC Enterococcus faecalis (GC 4552) (Enterococcus sp.; Enterococcus faecalis (GC 4552)): 16 µg/mL (≈ 11.2 µM) | MIC Enterococcus faecalis (GC 4553) (Enterococcus sp.; Enterococcus faecalis (GC 4553)): 16 µg/mL (≈ 11.2 µM) | MIC Enterococcus faecalis (GC 4554) (Enterococcus sp.; Enterococcus faecalis (GC 4554)): 32 µg/mL (≈ 22.3 µM) | MIC Enterococcus faecalis (GC 6189) (Enterococcus sp.; Enterococcus faecalis (GC 6189)): 32 µg/mL (≈ 22.3 µM) | MIC Enterococcus faecium (GC 2243) (Enterococcus sp.; Enterococcus faecium (GC 2243)): 16 µg/mL (≈ 11.2 µM) | MIC Enterococcus faecium (GC 4556) (Enterococcus sp.; Enterococcus faecium (GC 4556)): 16 µg/mL (≈ 11.2 µM) | MIC Enterococcus faecium (GC 4557) (Enterococcus sp.; Enterococcus faecium (GC 4557)): 4 µg/mL (≈ 2.79 µM) | MIC Enterococcus faecalis (GC 2242) (Enterococcus sp.; [4]): 16 µg/mL (≈ 11.2 µM) | MIC Enterococcus faecalis (GC 2691) (Enterococcus sp.; [4]): 32 µg/mL (≈ 22.3 µM) | MIC Enterococcus faecalis (GC 3059) (Enterococcus sp.; [4]): 16 µg/mL (≈ 11.2 µM) | Clinical Chemistry (Day 10) % of Control, BUN [2]: +160% | Anatomical Pathology (Day 10), Heart [3]: 0 | Anatomical Pathology (Day 10), Kidney [3]: +++
